Measured values: patent US20070191373A1, “Heterocyclic compounds for use in the treatment of viral infections” (priority 2003, published 2007)
Read-outs that look alike come from different tables or passages of the source.

Legend:
[1] = system: CMV strain AD169; test: CMV strain AD169 induced cytopathicity in HEL cells; assay type: cell-based, cytomegalovirus (CMV); details: Human betaherpesvirus 5, AD169, 168 h, vs untreated control
Description: (§1) Products where X═Y═N, Z=Q=O, U═V═CH and R^1, R^4 and R^8 are as given in Tables 1 and 2 below embodying the present invention were tested in vitro in tissue cultures for toxicity and for potent antiviral actions with respect to cytomegalovirus (CMV).
EC50/μm CMV-AD169 is the drug concentration in μM required to reduce by 50% CMV strain AD169 induced cytopathicity in human embryonic lung fibroblast (HEL) cells measured 7 days post infection compared to untreated control.
(§2) Further details of the methodology employed can be found in McGuigan et al. J. Med. Chem., 1999, 42, 4479-4484.

[2] = system: CMV strain Davis; test: CMV strain Davis induced cytopathicity in HEL cells; assay type: cell-based, cytomegalovirus (CMV); details: Human betaherpesvirus 5, 168 h, vs untreated control
Description: as §1
EC50/μM CMV Davis is the drug concentration in μM required to reduce by 50% CMV strain Davis induced cytopathicity in human embryonic lung fibroblast (HEL) cells measured 7 days post infection compared to untreated control.
as §2

[3] = Toxicity in tissue culture, reduction of cell number; assay type: cell-based; details: human, human embryonic lung fibroblast (HEL) cells, concentration reducing cell number by 50%
Description: as §1
CC50/μM is the compound concentration required to reduce the cell number by 50%.
as §2

[4] = Table 2, 7 days post infection, read-out: EC50/μM 2 CMV Davis
[5] = Table 1, 7 days post infection, read-out: EC50/μM 1 CMV Davis

SMILES	EC50 ([1]; Table 2, 7 days post infection) [µM]	EC50 [2, 4] [µM]	CC50 ([3]; Table 2) [µM]	melting point [°C]	EC50 ([1]; Table 1, 7 days post infection) [µM]	EC50 [2, 5] [µM]	CC50 ([3]; Table 1) [µM]
CCCCCCCc1cc2cnc(OC(CC)CC)nc2o1 [Cf2189, 6-Heptyl-2-(1-ethyl-propoxy)-furo[2,3-d]pyrimidine]	> 5	12	98	70 to 71			
CCCCCCCCCCc1cc2cnc(OC3CCCC3)nc2o1 [Cf2250, 2-Cyclopentyloxy-6decyl-2,3-dihydrofuro[2,3-d]pyrimidine]	> 50	> 50	> 200				
CCCCCCCCCCc1cc2cn(Cc3ccc(C)cc3)c(=O)nc2o1 [Cf2314, 6-Decyl-3-(4-methylbenzyl)-3H-furo[2,3-d]pyrimidin-2-one]					> 40	> 40	> 200
CCCCCCc1cc2cnc(OCc3ccccc3)nc2o1 [Cf2348, 2-Benzyloxy-6-hexyl-furo[2,3-d]pyrimidine]	> 200	> 3.6					
CCCCCCc1cc2cn(Cc3ccccc3)c(=O)nc2o1 [Cf2349, 3-Benzyl-6-hexyl-3H-furo[2,3-d]pyrimidin-2-one]					> 200	> 200	
CCCCCCCCCCc1cc2cn(C3CCCCC3)c(=O)nc2o1 [Cf2295, 3-Cyclohexyl-6-decyl-2,3-dihydrofuro[2,3-d]pyrimidin-2-one]					38	50	> 200
CCCCCCCCCCc1cc2cnc(OCc3ccc(OC)cc3)nc2o1 [Cf2315, 6-Decyl-2-(4-methoxybenzyloxy)-3H-furo[2,3-a]pyrimidine]	3.3	2.9	> 200				
CCCCCCCCCCc1cc2cnc(OC(CC)CC)nc2o1 [Cf2252]	16	10	127				
CCCCCOc1ncc2cc(CCCC)oc2n1 [Cf 2327]				51 to 52			
CCCCCCCCCCc1cc2cn(CC3CCCO3)c(=O)nc2o1 (centres unmarked) [Cf2309, 6-Decyl-3-(tetrahydro-furan-2-ylmethyl)-3H-furo[2,3-d]pyrimidin-2-one]					0.78	0.84	49
CCCCCCCCCCc1cc2cn(CCCC)c(=O)nc2o1 [Cf2306, 3-Butyl-6-decyl-3H-furo[2,3-d]pyrimidin-2-one]					> 200	> 200	> 200
CCCCCCCCCCc1cc2cnc(OCc3ccccc3)nc2o1 [Cf2307, 2-Benzyloxy-6-decyl-furo[2,3-d]pyrimidine]	3.3	1.1	> 200				
CCCCc1cc2cn(C3CCCC3)c(=O)nc2o1 [Cf2158, 6-Butyl-3-cyclopentyl-3H-furo[2,3-d]pyrimidin-2-one]					> 50	> 50	
CCCCCCCCCCc1cc2cn(CCC)c(=O)nc2o1 [Cf2304, 6-Decyl-3-propyl-3H-furo[2,3-d]pyrimidin-2-one]					40	8	> 200
CCCCCCCCCCc1cc2cnc(OCC3CCCCC3)nc2o1 [Cf2274, 2-Cyclohexylmethoxy-6-decyl-furo[2,3-d]pyrimidine]	4.4	2.9	> 200				
CCCCCCCCCCc1cc2cn(C3CCCO3)c(=O)nc2o1 (centres unmarked) [Cf2249, 6-Decyl-3-(tetrahydro-furan-2′-yl)-2,3-dihydrofuro[2,3-d]pyrimidin-2-one]					> 50	50	> 200
CCCCCCCCCCc1cc2cn(C3CCOC3)c(=O)nc2o1 (centres unmarked) [Cf2276, 6-Decyl-3-(tetrahydro-furan-3-yl)-3H-furo[2,3-d]pyrimidin-None]					20	10	148
CCCCCCCc1cc2cn(CCCCC)c(=O)nc2o1 [Cf2192, 6-Heptyl-3-pentyl-3H-furo[2,3-d]pyrimidin-2-one]					> 200	> 200	> 200

SMILES	EC50 ([1]; Table 2, 7 days post infection) [µM]	EC50 [2, 4] [µM]	CC50 ([3]; Table 2) [µM]	melting point [°C]	EC50 ([1]; Table 1, 7 days post infection) [µM]	EC50 [2, 5] [µM]	CC50 ([3]; Table 1) [µM]
CCCCCCCCCCc1cc2cn(Cc3ccccc3)c(=O)nc2o1 [Cf2308, 3-Benzyl-6-decyl-3H-furo[2,3-d]pyrimidin-2-one]					> 40	> 40	> 200
CCCCCCCCCCc1cc2cn(CC3CCCCC3)c(=O)nc2o1 [Cf2275, 3-Cyclohexylmethyl-6-decyl-3H-furo[2,3-d]pyrimidin-2-one]					> 200	> 200	> 200
CCCCCCCCCCc1cc2cnc(OC3CCCCC3)nc2o1 [Cf2294]	12	16	> 200				
CCCCCCCCCCc1cc2cnc(OCc3ccc(C)cc3)nc2o1 [Cf2313, 6-Decyl-2-(4-methylbenzyloxy)-3H-furo[2,3-d]pyrimidine]	10.5	3.9	> 200				
CCCCCCCCCCc1cc2cn(Cc3ccc(OC)cc3)c(=O)nc2o1 [Cf2316, 6-Decyl-3-(4-methoxybenzyl)-3H-furo[2,3-d]pyrimidin-2-one]					> 200	> 200	> 200
CCCCc1cc2cnc(OC(CC)CC)nc2o1 [Cf2193, 6-Butyl-2-(1-ethyl-propoxy)-furo[2,3-d]pyrimidine]	> 20	> 20	98				
CCCCCCCCCCc1cc2cnc(OCCCC)nc2o1 [Cf2305, 2-Butoxy-6decyl-furo[2,3-a]pyrimidine]	3.9	2.7	> 200				
CCCCCCc1cc2cn(C)c(=O)nc2o1 [Cf2344, 6-Hexyl-3-methyl-3H-furo[2,3-d]pyrimidin-2-one]					18	20	
CCCCCCCCCCc1cc2cnc(OCCC)nc2o1 [Cf2303, 6-Decyl-2-propoxy-furo[2,3-d]pyrimidine]	2.5	2.1	126				
CCCCCCCc1cc2cn(C3CCCC3)c(=O)nc2o1 [Cf2160]					5	4	194
CCCCCCc1cc2cnc(OCCCC)nc2o1 [Cf2346, 2-Butyloxy-6-hexyl-furo[2,3-d]pyrimidine]	8	3					
CCCCCn1cc2cc(CCCC)oc2nc1=O [Cf2195, 6-Butyl-3-pentyl-3H-furo[2,3-d]pyrimidin-2-one]					> 50	> 50	> 200
CCCCCCCc1cc2cnc(OCCCCC)nc2o1 [Cf2191, 6-Heptyl-2-pentyloxy-furo[2,3-d]pyrimidine]	> 5	16	1110	48 to 49			
CCCCCCCc1cc2cn(C3CCCO3)c(=O)nc2o1 (centres unmarked) [Cf2196, 6-Heptyl-3-(tetrahydro-furan-2-yl)-3H-furo[2,3-d]pyrimidin-2-one]					> 20	> 20	46
CCCCc1cc2cn(C(CC)CC)c(=O)nc2o1 [Cf2194, 6-Butyl-3-(1-ethyl-propyl)-3H-furo[2,3-d]pyrimidin-2-one]					> 50	> 200	> 200
CCCCc1cc2cnc(OC3CCCC3)nc2o1 [Cf2159, 6-Butyl-2-cyclopentyloxy-furo[2,3-d]pyrimidine]	8	7	108	69 to 71			
CCCCCCCc1cc2cn(C(CC)CC)c(=O)nc2o1 [Cf2190, 6-Heptyl-3-(1-ethyl-propyl)-3H-furo[2,3-d]pyrimidin-2-one]					20	50	> 200
CCCCCCCCCCc1cc2cnc(OCCCCC)nc2o1 [Cf2247]	> 200	> 200	> 200				
